Our source for the inhibition and IC50 values is US20230322724A1, “HETEROCYCLIC COMPOUNDS AS CBP/EP300 BROMODOMAIN INHIBITORS” (AURIGENE ONCOLOGY LIMITED, priority 2020, published 2023).

What all share (format): binding
The target in test [1] is T1, recombinant BRD4 FL bromodomain (Homo sapiens, UniProt O60885).
T1 construct: fused on or other part: 6xHis tag, inferred from detection with Mab ANTI 6HIS-XL665
Nature of the test: BRD4 FL TR-FRET displacement assay. Particulars: BRD4 FL; for inhibition at 10 µM: compound at 10 μM, read-out: % Inhibition (10 μM); for IC50: dose-response, read-out: IC50 (group A, B, C). The gist of the method:
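Recombinant BRD4 FL (10 nM) pre-incubated 30 min at room temperature with 300 nM biotinylated acetyl-histone H4 (K5/8/12/16) in 50 mM HEPES pH 7.5, 50 mM NaCl, 500 μM CHAPS, then added to compounds for 30 min. Stopped with Eu-streptavidin/anti-6His-XL665 in KF; 665/615 nm ratio fitted sigmoidally for IC50.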

For test [2], the target named is T2, recombinant P300 bromodomain (Homo sapiens, UniProt Q09472).
T2 construct: recombinant P300 bromodomain obtained from BPS Bioscience, USA; purchased BPS Bioscience, USA
T2 sequence (Q09472 1049-1156 limits assumed): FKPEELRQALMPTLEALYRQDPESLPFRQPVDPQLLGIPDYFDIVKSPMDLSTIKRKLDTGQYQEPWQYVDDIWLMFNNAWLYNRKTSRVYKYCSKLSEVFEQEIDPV
The test is described as follows: P300 TR-FRET displacement assay. Particulars: dose-response, read-out: IC50 (group A, B, C). On the procedure:
The potency of compounds to inhibit P300 enzyme was tested in a TR-FRET displacement assay using recombinant P300 bromodomain obtained from BPS Bioscience, USA. The assay buffer was 50 mM HEPES (pH 7.5), 50 mM NaCl, 0.008% Brij 35, 0.01% BSA, 1 mM TCEP. 50 nM of P300 & 500 nM of Biotinylated ligand was incubated at room temperature for 30 minutes, the reaction was initiated by adding the pre-incubated enzyme ligand mixture to the test compounds. After 60 min incubation, the reaction was stopped by the addition of stop mix containing 1 nM of LANCE Europium-anti-6xHis antibody (Perkin Elmer, USA) and 40 nM of Sure Light Allophycocyanin-Streptavidin (Perkin Elmer, USA). Fluorescence emission of the samples at 665 and 615 nm were measured at an excitation of 340 nm and their ratio was plotted against the compound concentrations to generate dose-response curve.
Selected compounds of the present invention were screened in the above-mentioned assay procedures and IC50 values were determined by fitting the dose-response data to sigmoidal curve fitting equation using Graph pad prism software V7.
A general note: Time-resolved FRET reads energy transfer from a long-lived donor to a nearby acceptor.

The target in test [3] is T3, recombinant CREBBP bromodomain (Homo sapiens, UniProt Q92793).
T3 construct: recombinant CREBBP bromodomain obtained from BPS Bioscience, USA; purchased BPS Bioscience, USA
The test is described as follows: CBP TR-FRET displacement assay. The following applies: for inhibition at 10 µM: compound at 10 μM; for IC50: dose-response, read-out: IC50 (group A, B, C). In short, it runs like this:
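CREBBP bromodomain (50 nM) preincubated 30 min at room temperature with 500 nM biotinylated ligand in HEPES pH 7.5 buffer with TCEP, then 60 min with compound. Eu-anti-His/APC-streptavidin TR-FRET 665/615 nm ratio read; IC50 from sigmoidal dose-response fit.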

Bounds are passed on as bounds.

T3 sequence (Q92793 1085-1192 limits assumed): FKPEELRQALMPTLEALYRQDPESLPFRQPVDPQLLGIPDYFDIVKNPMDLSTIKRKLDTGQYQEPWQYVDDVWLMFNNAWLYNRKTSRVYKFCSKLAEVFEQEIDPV

For `Cc1cc2c(N3CCN(C)c4cc(-c5cnn(C)c5)c(C#N)cc43)cccc2n(C)c1=O` [Example 42], the figures for the inhibition at 10 µM in test [1] and in test [3] were 81% and 96%, respectively. The IC50 (commonly the concentration at which inhibition is half-maximal) in test [2] was 25 to 50 nM; in test [3], less than 50 nM.

As for `COc1cc(N2CCN(C)c3cc(-c4cnn(C)c4)c(C#N)cc32)c2cc(C)c(=O)[nH]c2c1` [Example 7], the values for the inhibition at 10 µM in test [1] and in test [3] were 77% and 90%, respectively. Also, the IC50 in test [2] is greater than 50000 nM; in test [3] it was less than 50 nM.

Consider `Cc1cc2c(N3CCCc4cc(-c5cnn(C)c5)c(C(F)F)cc43)cncc2n(C)c1=O` [Example 180], for which the IC50 is 2010 to 5000 nM in test [1], less than 25 nM in test [2] and 51 to 100 nM in test [3].

With `CN1CCN(c2cccc3c2cc(N)c(=O)n3C)c2cc(C#N)c(-c3cnn(C)c3)cc21` [Example 77, 4-(3-Amino-1-methyl-2-oxo-1,2-dihydroquinolin-5-yl)-1-methyl-7-(1-methyl-1H-pyrazol-4-yl)-1,2,3,4-tetrahydroquinoxaline-6-carbonitrile], the IC50 is 2010 to 5000 nM in test [1], greater than 50000 nM in test [2] and greater than 10 nM in test [3].

As for `Cc1cc2c(N3CCN(C)c4cc(-c5cnn(C)c5)ccc43)cccc2[nH]c1=O` [Example 6], the half-inhibitory concentration (IC50) in test [1] is 2010 to 5000 nM; in test [2], greater than 50000 nM; in test [3], greater than 10 nM. The inhibition (commonly how much of the control response was suppressed) at 10 µM in test [3] was found to be 100%.

`Cc1cc2c(N3CCN(C)c4cc(-c5cnn(C)c5)ccc43)cc(OCC(=O)O)cc2n(C)c1=O` [Example 72, 2-((1,3-Dimethyl-5-(4-methyl-6-(1-methyl-1H-pyrazol-4-yl)-3,4-dihydroquinoxalin-1(2H)-yl)-2-oxo-1,2-dihydroquinolin-7-yl)oxy)acetic acid]: the IC50 in test [2] was less than 25 nM; in test [3] it was less than 50 nM.

On to `COc1cc(N2CCN(C)c3cc(-c4cnn(C)c4)c(S(=O)(=O)NC(C)=O)cc32)c2cc(C)c(=O)n(C)c2c1` [Example 108], for which the IC50 in test [2] was less than 25 nM; in test [3] it was less than 50 nM.

On to `CNC(=O)C1CCN(c2cc3c(cc(C)c(=O)n3C)c(N3CCCc4cc(-c5cnn(C)c5)c(C(F)F)cc43)n2)C1` (centres unmarked) [Example 201, 1-(5-(7-(Difluoromethyl)-6-(1-methyl-1H-pyrazol-4-yl)-3,4-dihydroquinolin-1(2H)-yl)-1,3-dimethyl-2-oxo-1,2-dihydro-1,6-naphthyridin-7-yl)-N-methylpyrrolidine-3-carboxamide], for which the IC50 in test [2] is less than 25 nM; in test [3], less than 50 nM.

Take `COc1ccc(CN2CCN(c3cc(OC)cc4c3cc(C)c(=O)n4C)c3cc(C#N)c(-c4cnn(C)c4)cc32)cc1` [Example 8, 4-(7-methoxy-1,3-dimethyl-2-oxo-1,2-dihydroquinolin-5-yl)-1-(4-methoxybenzyl)-7-(1-methyl-1H-pyrazol-4-yl)-1,2,3,4-tetrahydroquinoxaline-6-carbonitrile]: the IC50 in test [2] was greater than 50000 nM; in test [3], greater than 10 nM.

Regarding `COc1cc(N2CCN(C)c3cc(-c4cnc(O)nc4)c(C#N)cc32)c2cc(C)c(=O)n(C)c2c1` [Example 16], the IC50 in test [2] was less than 25 nM; in test [3], less than 50 nM.

Regarding `COc1cc(N2CC(C)N(C)c3cc(-c4cnn(C)c4)c(C#N)cc32)c2cc(C)c(=O)n(C)c2c1` (centres unmarked) [Example 13], the IC50 was less than 25 nM in test [2] and less than 50 nM in test [3].

In the case of `Cc1cc2c(N3CCN(C)c4cc(-c5cnn(C)c5)c(C#N)cc43)nccc2[nH]c1=O` [Example 54], the IC50 in test [2] was greater than 50000 nM. In test [3], the inhibition at 10 µM was found to be 91% and the IC50 is greater than 10 nM.

Consider `COc1cc(N2CCN(C)c3cc(C(=O)O)c(C#N)cc32)c2cc(C)c(=O)n(C)c2c1` [Example 68, 7-cyano-1-(7-methoxy-1,3-dimethyl-2-oxo-1,2-dihydroquinolin-5-yl)-4-methyl-1,2,3,4-tetrahydroquinoxaline-6-carboxylic acid], for which the figures for the IC50 in test [1], in test [2] and in test [3] were 2010 to 5000 nM, 25 to 50 nM and less than 50 nM, respectively.

`Cc1cc2c(N3CCN(C)c4cc(-c5cnn(C)c5)c(C#N)cc43)cccc2[nH]c1=O` [Example 2, 1-methyl-7-(1-methyl-1H-pyrazol-4-yl)-4-(3-methyl-2-oxo-1,2-dihydroquinolin-5-yl)-1,2,3,4-tetrahydroquinoxaline-6-carbonitrile]: the IC50 was less than 25 nM in test [2] and less than 50 nM in test [3].

As to `COc1cc(N2CCN(C)c3cc(F)c(S(N)(=O)=O)cc32)c2cc(C)c(=O)n(C)c2c1` [Example 86], the IC50 in test [1] was 2010 to 5000 nM; in test [2], 25 to 50 nM; in test [3], less than 50 nM.

As to `Cc1cc2c(N3CCN(C)c4cc(-c5cnn(C)c5)c(C#N)cc43)cc(OCCN3CCOCC3)cc2n(C)c1=O` [Example 36], the IC50 in test [2] is less than 25 nM; in test [3] it was less than 50 nM. Also, the inhibition at 10 µM in test [3] is 100%.

In the case of `COc1cc(N2CCN(C)c3ccc(S(N)(=O)=O)cc32)c2cc(C)c(=O)n(C)c2c1` [Example 94], the IC50 in test [1] was 2010 to 5000 nM; in test [2], less than 25 nM; in test [3] it was less than 50 nM.

Consider `CNC(=O)[C@@H]1CCN(c2cc3c(cc(C)c(=O)n3C)c(N3CCCc4cc(-c5cnn(C)c5)c(C(F)F)cc43)n2)C1` [Example 211], for which the values for the IC50 in test [2] and in test [3] were less than 25 nM and less than 50 nM, respectively.

Regarding `COc1cc(N2CCN(C)c3cc(N4CCN(C(C)=O)CC4)c(C#N)cc32)c2cc(C)c(=O)n(C)c2c1` [Example 23], the IC50 is less than 25 nM in test [2] and less than 50 nM in test [3].

For the compound `COc1cc(N2CCN(C)c3cc(-c4cnn(C)c4)c(C#N)cc32)c2cc(C)c(=O)n(C)c2c1` [Example 1, 4-(7-Methoxy-1,3-dimethyl-2-oxo-1,2-dihydroquinolin-5-yl)-1-methyl-7-(1-methyl-1H-pyrazol-4-yl)-1,2,3,4-tetrahydroquinoxaline-6-carbonitrile], in test [2], the IC50 was less than 25 nM. In test [3], the inhibition at 10 µM is 99% and the IC50 was less than 50 nM.

Consider `CNC(=O)c1ccc(-c2cc3c(cc2C(F)F)N(c2cccc4c2cc(C)c(=O)n4C)CCC3)cn1` [Example 176], for which the IC50 was less than 25 nM in test [2] and less than 50 nM in test [3].

On to `Cc1ccc2[nH]c(=O)c(C)cc2c1N1CCN(C)c2cc(-c3cnn(C)c3)c(C#N)cc21` [Example 38], for which, in test [2], the IC50 was greater than 50000 nM. In test [3], the inhibition at 10 µM was 98% and the IC50 was less than 50 nM.

With `COc1cc(N2CCc3cc(-c4cnn(C)c4)c(C(F)F)cc32)c2cc(C)c(=O)n(C)c2c1` [Example 195, 5-(6-(Difluoromethyl)-5-(1-methyl-1H-pyrazol-4-yl)indolin-1-yl)-7-methoxy-1,3-dimethylquinolin-2(1H)-one], the IC50 is 25 to 50 nM in test [2] and less than 50 nM in test [3].

In the case of `COc1cc(N2CCN(C)c3cc(-c4ccnn4C)c(C#N)cc32)c2cc(C)c(=O)n(C)c2c1` [Example 9], the IC50 in test [2] was less than 25 nM; in test [3] it was less than 50 nM.

Turning to `Cc1cc2c(N3CCCc4cc(-c5cnn(C)c5)c(C(F)F)cc43)nc(C3CCOCC3)cc2n(C)c1=O` [Example 242, 5-(7-(Difluoromethyl)-6-(1-methyl-1H-pyrazol-4-yl)-3,4-dihydroquinolin-1(2H)-yl)-1,3-dimethyl-7-(tetrahydro-2H-pyran-4-yl)-1,6-naphthyridin-2(1H)-one], the IC50 is less than 25 nM in test [2] and less than 50 nM in test [3].

With `CNC(=O)c1cc2c(cc1C#N)N(c1cc(OC)cc3c1cc(C)c(=O)n3C)CCN2C` [Example 69, 7-cyano-1-(7-methoxy-1,3-dimethyl-2-oxo-1,2-dihydroquinolin-5-yl)-N,4-dimethyl-1,2,3,4-tetrahydroquinoxaline-6-carboxamide], the inhibition at 10 µM in test [1] was 39%. For the same compound, the results for the IC50 in test [2] and in test [3] were less than 25 nM and less than 50 nM, respectively.
